Laboratory results published in US20250161501A1, “Radiolabeled Compounds for Imaging of Fibroblast Activation Protein (FAP) and Treatment of FAP-Related Disorders” (Provincial Health Services Authority, priority 2022, published 2025).

Key:
FAP = biological target: T1, FAP (Homo sapiens, UniProt Q12884); conditions: literature [25]; cited from earlier work
T1 sequence (Q12884 1-760): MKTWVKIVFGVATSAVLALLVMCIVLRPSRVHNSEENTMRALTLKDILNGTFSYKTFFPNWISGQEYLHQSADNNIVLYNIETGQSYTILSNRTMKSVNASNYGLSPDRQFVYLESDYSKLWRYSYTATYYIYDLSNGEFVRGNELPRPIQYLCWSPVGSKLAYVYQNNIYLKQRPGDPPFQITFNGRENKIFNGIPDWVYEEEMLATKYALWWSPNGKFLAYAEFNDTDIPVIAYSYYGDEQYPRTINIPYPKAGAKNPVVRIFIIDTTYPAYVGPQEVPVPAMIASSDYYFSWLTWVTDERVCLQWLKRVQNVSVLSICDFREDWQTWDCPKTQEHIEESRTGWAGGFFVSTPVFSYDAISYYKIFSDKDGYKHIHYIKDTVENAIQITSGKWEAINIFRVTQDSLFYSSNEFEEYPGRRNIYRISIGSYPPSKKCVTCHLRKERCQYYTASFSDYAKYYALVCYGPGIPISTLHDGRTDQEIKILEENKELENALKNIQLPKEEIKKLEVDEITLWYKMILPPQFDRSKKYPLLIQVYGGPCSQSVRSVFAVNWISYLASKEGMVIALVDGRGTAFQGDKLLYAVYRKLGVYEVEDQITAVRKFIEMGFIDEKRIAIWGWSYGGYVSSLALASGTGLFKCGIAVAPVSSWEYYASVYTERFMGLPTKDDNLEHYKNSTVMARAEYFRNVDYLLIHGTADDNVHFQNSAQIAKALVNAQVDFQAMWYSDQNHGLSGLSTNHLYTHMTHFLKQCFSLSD

U87 xenografts = assay: Ex vivo biodistribution of 68Ga-labeled tracer in U87 tumor-bearing mice; conditions: U87 tumor model, mean±SD
Protocol: (§1) All imaging and biodistribution studies were performed using male NOD-scidIL2Rg^null (NRG) mice and conducted according to the guidelines established by the Canadian Council on Animal Care and approved by Animal Ethics Committee of the University of British Columbia. For tumor inoculations, mice were anesthetized by inhalation with 2% isoflurane in oxygen and implanted subcutaneously with 7.5×10^6 HEK293T:hFAP or U87 cells below the left shoulder. Imaging and biodistribution studies were performed only after tumors grew to 5-8 mm in diameter.
For ex vivo biodistribution studies, mice were injected with -1-3 MBq of the ^68Ga-labeled tracer. Mice were allowed to recover and roam freely in the cages after injecting the tracer. […] The uptake in each organ/tissue was normalized to the injected dose and expressed as the percentage of the injected dose per gram of tissue (% ID/g). […]

[1] = test system: HEK293T:hFAP tumor xenografts; assay: Ex vivo biodistribution of 68Ga-labeled tracers in HEK293T:hFAP tumor-bearing mice; conditions: for Uptake in HEK293T:hFAP tumor xenografts, comparison in words: 68Ga-SB03178 vs 68Ga-FAPI-4, 68Ga-SB04033 vs 68Ga-SB03178
Protocol: as §1
For ex vivo biodistribution studies, mice were injected with -1-3 MBq of the ^68Ga-labeled tracer. Mice were allowed to recover and roam freely in the cages after injecting the tracer. […] The uptake in each organ/tissue was normalized to the injected dose and expressed as the percentage of the injected dose per gram of tissue (% ID/g).
Biodistribution data for ^68Ga-SB03178, ^68Ga-SB04033, and ^68Ga-FAPI-4 in mice bearing FAP tumor xenografts are presented in Tables 5-7. Data are presented as mean±SD % ID/g.

[2] = HEK293T:hFAP tumor model, 1 h post-injection (n = 4), mean±SD
[3] = HEK293T:hFAP tumor model, 3 h post-injection (n = 2), mean±SD
[4] = HEK293T:hFAP tumor xenograft mice, 1 h post-injection, Table 5, mean±SD

N#C[C@@H]1CCCN1C(=O)CNC(=O)c1ccnc2ccc(OCCCN3CCN(C(=O)CN4CCN(CC(=O)O)CCN(CC(=O)O)CCN(CC(=O)O)CC4)CC3)cc12 [^68Ga-FAPI-2, metal not drawn]
Tumor uptake over time (FAP): reduced quickly over time

N#C[C@@H]1CC(F)(F)CN1C(=O)CNC(=O)c1ccnc2c1cc(OCCCN1CCN(C(=O)CN3CCN(CC(=O)O)CCN(CC(=O)O)CCN(CC(=O)O)CC3)CC1)c1ccccc12 [^68Ga-SB03178, metal not drawn]
Biodistribution: Adrenal Glands (U87 xenografts; 1 h post-injection (n = 3)): 1.41 ± 0.38 % ID/g
Biodistribution: Blood (U87 xenografts; 1 h post-injection (n = 3)): 3.55 ± 0.22 % ID/g
Biodistribution: Bone (U87 xenografts; 1 h post-injection (n = 3)): 2.51 ± 0.66 % ID/g
Biodistribution: Brain (U87 xenografts; 1 h post-injection (n = 3)): 0.07 ± 0.01 % ID/g
Biodistribution: Fat (U87 xenografts; 1 h post-injection (n = 3)): 0.28 ± 0.18 % ID/g
Biodistribution: Heart (U87 xenografts; 1 h post-injection (n = 3)): 0.80 ± 0.06 % ID/g
Biodistribution: Kidneys (U87 xenografts; 1 h post-injection (n = 3)): 8.92 ± 1.32 % ID/g
Biodistribution: Large Intestines (U87 xenografts; 1 h post-injection (n = 3)): 0.44 ± 0.09 % ID/g
Biodistribution: Liver (U87 xenografts; 1 h post-injection (n = 3)): 1.12 ± 0.08 % ID/g
Biodistribution: Lungs (U87 xenografts; 1 h post-injection (n = 3)): 1.66 ± 0.10 % ID/g
Biodistribution: Muscle (U87 xenografts; 1 h post-injection (n = 3)): 0.57 ± 0.21 % ID/g
Biodistribution: Pancreas (U87 xenografts; 1 h post-injection (n = 3)): 0.65 ± 0.11 % ID/g
Biodistribution: Small Intestine (U87 xenografts; 1 h post-injection (n = 3)): 1.07 ± 0.03 % ID/g
Biodistribution: Spleen (U87 xenografts; 1 h post-injection (n = 3)): 0.48 ± 0.08 % ID/g
Biodistribution: Stomach (U87 xenografts; 1 h post-injection (n = 3)): 0.28 ± 0.12 % ID/g
Biodistribution: Testes (U87 xenografts; 1 h post-injection (n = 3)): 0.65 ± 0.09 % ID/g
Biodistribution: Tumor (U87 xenografts; 1 h post-injection (n = 3)): 16.3 ± 1.72 % ID/g
Biodistribution: Adrenal Glands (U87 xenografts; 3 h post-injection (n = 3)): 0.49 ± 0.30 % ID/g
Biodistribution: Blood (U87 xenografts; 3 h post-injection (n = 3)): 0.98 ± 0.09 % ID/g
Biodistribution: Bone (U87 xenografts; 3 h post-injection (n = 3)): 1.11 ± 0.27 % ID/g
Biodistribution: Brain (U87 xenografts; 3 h post-injection (n = 3)): 0.03 ± 0.00 % ID/g
Biodistribution: Fat (U87 xenografts; 3 h post-injection (n = 3)): 0.09 ± 0.04 % ID/g
Biodistribution: Heart (U87 xenografts; 3 h post-injection (n = 3)): 0.28 ± 0.01 % ID/g
Biodistribution: Kidneys (U87 xenografts; 3 h post-injection (n = 3)): 9.63 ± 1.23 % ID/g
Biodistribution: Large Intestines (U87 xenografts; 3 h post-injection (n = 3)): 1.15 ± 0.37 % ID/g
Biodistribution: Liver (U87 xenografts; 3 h post-injection (n = 3)): 0.71 ± 0.05 % ID/g
Biodistribution: Lungs (U87 xenografts; 3 h post-injection (n = 3)): 0.72 ± 0.11 % ID/g
Biodistribution: Muscle (U87 xenografts; 3 h post-injection (n = 3)): 0.34 ± 0.07 % ID/g
Biodistribution: Pancreas (U87 xenografts; 3 h post-injection (n = 3)): 0.27 ± 0.06 % ID/g
Biodistribution: Small Intestine (U87 xenografts; 3 h post-injection (n = 3)): 0.56 ± 0.16 % ID/g
Biodistribution: Spleen (U87 xenografts; 3 h post-injection (n = 3)): 0.34 ± 0.04 % ID/g
Biodistribution: Stomach (U87 xenografts; 3 h post-injection (n = 3)): 0.24 ± 0.02 % ID/g
Biodistribution: Testes (U87 xenografts; 3 h post-injection (n = 3)): 0.25 ± 0.03 % ID/g
Biodistribution: Tumor (U87 xenografts; 3 h post-injection (n = 3)): 7.95 ± 0.29 % ID/g
Uptake in HEK293T:hFAP tumor xenografts, comparison in words [1]: higher uptake
Biodistribution: Adrenal Glands [1, 2]: 3.01 ± 2.86 % ID/g
Biodistribution: Blood [1, 2]: 2.59 ± 0.32 % ID/g
Biodistribution: Bone [1, 2]: 1.89 ± 0.31 % ID/g
Biodistribution: Brain [1, 2]: 0.06 ± 0.01 % ID/g
Biodistribution: Fat [1, 2]: 0.22 ± 0.03 % ID/g
Biodistribution: Heart [1, 2]: 0.71 ± 0.09 % ID/g
Biodistribution: Kidneys [1, 2]: 9.58 ± 1.21 % ID/g
Biodistribution: Large Intestines [1, 2]: 0.52 ± 0.21 % ID/g
Biodistribution: Liver [1, 2]: 1.11 ± 0.15 % ID/g
Biodistribution: Lungs [1, 2]: 1.66 ± 0.23 % ID/g
Biodistribution: Muscle [1, 2]: 0.56 ± 0.08 % ID/g
Biodistribution: Pancreas [1, 2]: 0.57 ± 0.05 % ID/g
Biodistribution: Small Intestine [1, 2]: 1.04 ± 0.14 % ID/g
Biodistribution: Spleen [1, 2]: 0.87 ± 0.30 % ID/g
Biodistribution: Stomach [1, 2]: 0.27 ± 0.19 % ID/g
Biodistribution: Testes [1, 2]: 0.44 ± 0.08 % ID/g
Biodistribution: Tumor [1, 2]: 21.0 ± 3.84 % ID/g
Biodistribution: Adrenal Glands [1, 3]: 0.31 ± 0.06 % ID/g
Biodistribution: Blood [1, 3]: 1.35 ± 1.18 % ID/g
Biodistribution: Bone [1, 3]: 0.38 ± 0.07 % ID/g
Biodistribution: Brain [1, 3]: 0.02 ± 0.00 % ID/g
Biodistribution: Fat [1, 3]: 0.11 ± 0.10 % ID/g
Biodistribution: Heart [1, 3]: 0.15 ± 0.06 % ID/g
Biodistribution: Kidneys [1, 3]: 3.89 ± 1.35 % ID/g
Biodistribution: Large Intestines [1, 3]: 0.53 ± 0.13 % ID/g
Biodistribution: Liver [1, 3]: 0.33 ± 0.13 % ID/g
Biodistribution: Lungs [1, 3]: 0.39 ± 0.08 % ID/g
Biodistribution: Muscle [1, 3]: 0.13 ± 0.08 % ID/g
Biodistribution: Pancreas [1, 3]: 0.17 ± 0.05 % ID/g
Biodistribution: Small Intestine [1, 3]: 0.34 ± 0.21 % ID/g
Biodistribution: Spleen [1, 3]: 0.24 ± 0.07 % ID/g
Biodistribution: Stomach [1, 3]: 0.06 ± 0.02 % ID/g
Biodistribution: Testes [1, 3]: 0.12 ± 0.03 % ID/g
Biodistribution: Tumor [1, 3]: 6.58 ± 1.98 % ID/g
Biodistribution: Adrenal Glands [1, 4]: 3.48 ± 3.31 % ID/g
Biodistribution: Blood [1, 4]: 3.00 ± 0.38 % ID/g
Biodistribution: Bone [1, 4]: 2.18 ± 0.35 % ID/g
Biodistribution: Brain [1, 4]: 0.07 ± 0.01 % ID/g
Biodistribution: Fat [1, 4]: 0.25 ± 0.04 % ID/g
Biodistribution: Heart [1, 4]: 0.82 ± 0.10 % ID/g
Biodistribution: Kidneys [1, 4]: 11.1 ± 1.40 % ID/g
Biodistribution: Liver [1, 4]: 1.29 ± 0.17 % ID/g
Biodistribution: Lungs [1, 4]: 1.92 ± 0.26 % ID/g
Biodistribution: Muscle [1, 4]: 0.65 ± 0.09 % ID/g
Biodistribution: Pancreas [1, 4]: 0.66 ± 0.06 % ID/g
Biodistribution: Spleen [1, 4]: 1.00 ± 0.35 % ID/g
Biodistribution: Stomach [1, 4]: 0.32 ± 0.22 % ID/g
Biodistribution: Testes [1, 4]: 0.51 ± 0.09 % ID/g
Biodistribution: Tumor [1, 4]: 24.3±4.44 % ID/g

C[C@@H](NC(=O)c1ccnc2c1cc(OCCCN1CCN(C(=O)CN3CCN(CC(=O)O)CCN(CC(=O)O)CCN(CC(=O)O)CC3)CC1)c1ccccc12)C(=O)N1CCC[C@H]1B(O)O [^68Ga-SB04033, metal not drawn]
Uptake in HEK293T:hFAP tumor xenografts, comparison in words [1]: weaker uptake
Biodistribution: Adrenal Glands [1, 2]: 0.65 ± 0.46 % ID/g
Biodistribution: Blood [1, 2]: 3.62 ± 0.47 % ID/g
Biodistribution: Bone [1, 2]: 1.52 ± 0.22 % ID/g
Biodistribution: Brain [1, 2]: 0.08 ± 0.01 % ID/g
Biodistribution: Fat [1, 2]: 0.30 ± 0.15 % ID/g
Biodistribution: Heart [1, 2]: 0.95 ± 0.12 % ID/g
Biodistribution: Kidneys [1, 2]: 10.3 ± 0.55 % ID/g
Biodistribution: Large Intestines [1, 2]: 0.33 ± 0.03 % ID/g
Biodistribution: Liver [1, 2]: 1.06 ± 0.11 % ID/g
Biodistribution: Lungs [1, 2]: 2.13 ± 0.33 % ID/g
Biodistribution: Muscle [1, 2]: 0.54 ± 0.11 % ID/g
Biodistribution: Pancreas [1, 2]: 0.62 ± 0.05 % ID/g
Biodistribution: Small Intestine [1, 2]: 1.53 ± 0.20 % ID/g
Biodistribution: Spleen [1, 2]: 0.98 ± 0.27 % ID/g
Biodistribution: Stomach [1, 2]: 0.30 ± 0.10 % ID/g
Biodistribution: Testes [1, 2]: 0.59 ± 0.07 % ID/g
Biodistribution: Tumor [1, 2]: 5.95 ± 0.16 % ID/g
